{
  "source": "patent US4415566A",
  "about": "“Cephalosporin derivatives” (Boehringer Ingelheim GmbH, priority 1979, dated 1983)",
  "key": {"[1]": {"tested_on": "Serratia marcescens ATCC 13880", "experiment": "Serial dilution test in the microtiter system (MIC), Serrat. marcesc. ATCC 13880", "format": "cell-based", "description": "(§1) These tests were performed according to the method of the serial dilution test in the microtiter system. The effect of the substances on bacteriostasis was examined in a fluid medium. […] A nutrient medium of the following composition was used. 10 gm of peptone, 8 gm of meat extract-oxoid, 3 gm of sodium chloride, 2 gm of sec. sodium phosphate were diluted with distilled water to […] (pH 7.2-7.4). Only in the test against streptococci 1% of glucose was added. The age of the primary cultures was about 20 hours. The standardization of the pathogen suspension was effected by using a photometer according to \"Eppendorf\" (test tube dismeter 14 mm, filter 546 nm) with the aid of the turbidity of a comparison suspension consisting of barium sulfate, this suspension being prepared by addition of 3.0 ml of 1% barium chloride solution to 97 ml of 1% sulfuric acid. After the standardization, streptococcus aronson were further diluted to a concentration of 1:15 and the other microorganisms to a concentration of 1:1500 by means of a sodium chloride solution.\n(§2) 16 mg of the test substance were put into a 10 ml-measuring flask and filled up to the mark with the solvent. The further dilution series was standardized with distilled water or the respective solvent.\n(§3) The cavities of the microtiter plates were filled with 0.2 ml of nutrient medium. Then, 0.01 ml of the corresponding test substance dilution was added and inoculated with 0.01 ml of the standardized suspension. The bacteria were incubated at 37° C. for 18-20 hours. Control tests merely using the solvent were carried out simultaneously.\n(§4) The measurement was carried out macroscopically to determine the minimal inhibitory (threshold) concentration, i.e. the lower still bacteriostatically effective concentration.\n(§5) Staphylococcus aureus SG 511, Escherichia coli ATCC 11 775, Pseudomonas aeruginosa Hamburgensis and Pseudomonas aeruginosa Walter, Serratia marcescens ATCC 13880, Klebsiella pneumoniae ATCC 10 031 and 272, Proteus mirabilis Hamburgensis, Proteus rettgeri, Enterbacter cloaceae ATCC 13 047 and E. Coli R+TEM (β-lactamase carrier)."}, "[2]": {"tested_on": "Klebsiella pneumoniae 272", "experiment": "Serial dilution test in the microtiter system (MIC), Klebs. pneum. 272", "format": "cell-based", "conditions": "Table IV, Klebs. pneum. 272, 37° C., 18-20 hours, read-out: MIC", "description": "as §1, §2, §3, §4, §5"}, "[3]": {"tested_on": "Enterbacter cloaceae ATCC 13 047", "experiment": "Serial dilution test in the microtiter system (MIC), Eb. cloaceae ATCC 13047", "format": "cell-based", "description": "as §1, §2, §3, §4, §5"}, "[4]": {"tested_on": "Klebsiella pneumoniae ATCC 10 031", "experiment": "Serial dilution test in the microtiter system (MIC), Klebs. pneum. ATCC 10031", "format": "cell-based", "description": "as §1, §2, §3, §4, §5"}, "[5]": {"tested_on": "Escherichia coli ATCC 11 775", "experiment": "Serial dilution test in the microtiter system (MIC), E. Coli ATCC 11775", "format": "cell-based", "conditions": "Table IV, E. Coli ATCC 11775, 37° C., 18-20 hours, read-out: MIC", "description": "as §1, §2, §3, §4, §5"}, "[6]": {"tested_on": "Proteus mirabilis Hamburgensis", "experiment": "Serial dilution test in the microtiter system (MIC), Prot. mirabilis", "format": "cell-based", "conditions": "Table IV, Prot. mir. Hbg., 37° C., 18-20 hours, read-out: MIC", "description": "as §1, §2, §3, §4, §5"}, "[7]": {"tested_on": "Pseudomonas aeruginosa Walter", "experiment": "Serial dilution test in the microtiter system (MIC), Pseud. aerug. Walter", "format": "cell-based", "description": "as §1, §2, §3, §4, §5"}, "[8]": {"tested_on": "Pseudomonas aeruginosa Hamburgensis", "experiment": "Serial dilution test in the microtiter system (MIC), Pseud. aerug. Hbg.", "format": "cell-based", "description": "as §1, §2, §3, §4, §5"}, "[9]": {"tested_on": "Staphylococcus aureus SG 511", "experiment": "Serial dilution test in the microtiter system (MIC), S. aureus SG 511", "format": "cell-based", "description": "as §1, §2, §3, §4, §5"}, "[10]": {"tested_on": "Proteus rettgeri", "experiment": "Serial dilution test in the microtiter system (MIC), Prot. rettgeri", "format": "cell-based", "conditions": "Providencia rettgeri; Table IV; Prot. rettg.; 37° C., 18-20 hours; read-out: MIC", "description": "as §1, §2, §3, §4, §5"}, "[11]": {"tested_on": "E. coli ATCC 11775", "experiment": "In vivo activity in mice, E. coli infection", "design": "species or system Female NMRI mice", "conditions": "Escherichia coli, ATCC11775, iPSC, sc, 168 h; E. coli infection i.p.; s.c. administration; per dose; observation 7 days; read-out: ED50 (dose at which 50% of the animals survived)", "description": "(§6) A number of compounds of this invention were tested in vivo in mice against experimental infections. Bacteria E. coli ATCC 11775 and Psuedomonas aeruginosa Walter were used as pathogens. An intraperitoneal infection with 0.2 ml of a 5% suspension of the bacteria was induced. This corresponds to about 2×10^6 E. Coli germs and 8×10^5 pseudomonas germs/mouse. […] The groups with E. coli infection were treated with the test compound three times on the first day (1, 4, and 7 hours post infectionem) and for two days thereafter twice a day. The groups with the pseudomonas infection were treated with the test compound 6 times on the first day (1, 3, 6, 9, 12 and 15 hours post infectionem) and for two days thereafter twice a day. The observation time was in both cases 7 days. The results of these tests with representatives of the penicillins and cephalosporins according to the invention are shown in the following table: […]"}, "[12]": {"tested_on": "Psuedomonas aeruginosa Walter", "experiment": "In vivo activity in mice, Pseudomonas infection", "design": "species or system Female NMRI mice", "conditions": "Mus musculus, iPSC, sc, 168 h; Pseudomonas infection i.p.; s.c. administration; per dose; observation 7 days; read-out: ED50 (dose at which 50% of the animals survived)", "description": "as §6"}, "[13]": {"conditions": "Table IV, Klebs. pneum. ATCC 10031, 37° C., 18-20 hours, read-out: MIC"}, "[14]": {"conditions": "ATCC13880, Table IV, Serr. marcesc. ATCC 13880, 37° C., 18-20 hours, read-out: MIC"}, "[15]": {"conditions": "Table IV, Eb. cloaceae, 37° C., 18-20 hours, read-out: MIC"}, "[16]": {"conditions": "SG511, Table IV, S. aureus SG 511, 37° C., 18-20 hours, read-out: MIC"}},
  "note": "Like-named read-outs stand apart in the source and are kept apart here.",
  "data": [
    {"compound": "CC(=O)OCC1=C(C(=O)O)N2C(=O)[C@@H](NC(=O)[C@H](NC(=O)Nc3cnc(NCc4ccco4)nc3O)c3ccc(O)cc3)[C@H]2SC1", "note": "[K]", "values": [
      {"measurement": "MIC", "setting": "[1]; ATCC13880", "value": 2, "unit": "µg/mL"},
      {"measurement": "MIC", "setting": "[2]", "value": 1, "unit": "µg/mL"},
      {"measurement": "MIC", "setting": "[3]", "value": 4, "unit": "µg/mL"},
      {"measurement": "MIC", "setting": "[4]; [13]", "value": 1, "unit": "µg/mL"},
      {"measurement": "MIC", "setting": "[5]", "value": 0.5, "unit": "µg/mL"},
      {"measurement": "MIC", "setting": "[6]", "value": 0.25, "unit": "µg/mL"},
      {"measurement": "MIC", "setting": "[7]", "value": 8, "unit": "µg/mL"},
      {"measurement": "MIC", "setting": "[8]; Table IV, Pseud. aerug. Hbg., 37° C., 18-20 hours, read-out: MIC", "value": 16, "unit": "µg/mL"},
      {"measurement": "MIC", "setting": "[9]; SG511", "value": 1, "unit": "µg/mL"},
      {"measurement": "MIC", "setting": "[10]", "value": 1, "unit": "µg/mL"}
    ]},
    {"compound": "Cn1nnnc1SCC1=C(C(=O)O)N2C(=O)[C@@H](NC(=O)[C@H](NC(=O)Nc3cnc(NCc4cccnc4)nc3O)c3ccc(O)cc3)[C@H]2SC1", "note": "[L]", "values": [
      {"measurement": "ED50", "setting": "[11]", "value": 0.2, "unit": "mg/kg"},
      {"measurement": "MIC", "setting": "[1]; [14]", "value": 0.25, "unit": "µg/mL"},
      {"measurement": "MIC", "setting": "[2]", "value": 0.25, "unit": "µg/mL"},
      {"measurement": "MIC", "setting": "[3]; [15]", "value": 0.25, "unit": "µg/mL"},
      {"measurement": "ED50", "setting": "[12]", "value": 4.6, "unit": "mg/kg"},
      {"measurement": "MIC", "setting": "[4]", "value": 0.25, "unit": "µg/mL"},
      {"measurement": "MIC", "setting": "[9]; [16]", "value": 0.5, "unit": "µg/mL"},
      {"measurement": "MIC", "setting": "[10]", "value": 0.5, "unit": "µg/mL"}
    ]},
    {"compound": "Cn1nnnc1SCC1=C(C(=O)O)N2C(=O)[C@@H](NC(=O)[C@H](NC(=O)Nc3cnc(NCc4cccs4)nc3O)c3ccc(O)cc3)[C@H]2SC1", "note": "[N]", "values": [
      {"measurement": "ED50", "setting": "[11]", "value": 0.6, "unit": "mg/kg"},
      {"measurement": "MIC", "setting": "[1]; [14]", "value": 0.25, "unit": "µg/mL"},
      {"measurement": "MIC", "setting": "[2]", "value": 0.25, "unit": "µg/mL"},
      {"measurement": "MIC", "setting": "[3]; [15]", "value": 0.25, "unit": "µg/mL"},
      {"measurement": "MIC", "setting": "[4]; [13]", "value": 0.25, "unit": "µg/mL"},
      {"measurement": "MIC", "setting": "[5]", "value": 0.25, "unit": "µg/mL"},
      {"measurement": "MIC", "setting": "[6]", "value": 0.12, "unit": "µg/mL"},
      {"measurement": "MIC", "setting": "[7]", "value": 4, "unit": "µg/mL"},
      {"measurement": "MIC", "setting": "[8]", "value": 8, "unit": "µg/mL"},
      {"measurement": "MIC", "setting": "[9]; [16]", "value": 0.5, "unit": "µg/mL"},
      {"measurement": "MIC", "setting": "[10]", "value": 0.5, "unit": "µg/mL"}
    ]},
    {"compound": "Cn1nnnc1SCC1=C(C(=O)O)N2C(=O)[C@@H](NC(=O)[C@H](NC(=O)Nc3cnc(Nc4ccc([S+](C)[O-])nc4)nc3O)c3ccc(O)cc3)[C@H]2SC1", "note": "(stereo partly shown) [O]", "values": [
      {"measurement": "MIC", "setting": "[1]; [14]", "value": 0.5, "unit": "µg/mL"},
      {"measurement": "MIC", "setting": "[2]", "value": 0.25, "unit": "µg/mL"},
      {"measurement": "MIC", "setting": "[3]; [15]", "value": 0.5, "unit": "µg/mL"},
      {"measurement": "MIC", "setting": "[4]; [13]", "value": 0.25, "unit": "µg/mL"},
      {"measurement": "MIC", "setting": "[5]", "value": 0.25, "unit": "µg/mL"},
      {"measurement": "MIC", "setting": "[6]", "value": 0.12, "unit": "µg/mL"},
      {"measurement": "MIC", "setting": "[7]", "value": 4, "unit": "µg/mL"},
      {"measurement": "MIC", "setting": "[8]", "value": 4, "unit": "µg/mL"},
      {"measurement": "MIC", "setting": "[9]; [16]", "value": 0.25, "unit": "µg/mL"},
      {"measurement": "MIC", "setting": "[10]", "value": 0.5, "unit": "µg/mL"}
    ]},
    {"compound": "Cc1ncc(CNc2ncc(NC(=O)N[C@@H](C(=O)N[C@@H]3C(=O)N4C(C(=O)O)=C(CSc5nnnn5C)CS[C@H]34)c3ccc(O)cc3)c(O)n2)cn1", "note": "[P]", "values": [
      {"measurement": "MIC", "setting": "[1]; [14]", "value": 0.25, "unit": "µg/mL"},
      {"measurement": "MIC", "setting": "[2]", "value": 0.5, "unit": "µg/mL"},
      {"measurement": "MIC", "setting": "[3]; [15]", "value": 0.5, "unit": "µg/mL"},
      {"measurement": "MIC", "setting": "[4]; [13]", "value": 0.25, "unit": "µg/mL"},
      {"measurement": "MIC", "setting": "[5]", "value": 0.12, "unit": "µg/mL"},
      {"measurement": "MIC", "setting": "[6]", "value": 0.06, "unit": "µg/mL"},
      {"measurement": "MIC", "setting": "[7]", "value": 4, "unit": "µg/mL"},
      {"measurement": "MIC", "setting": "[8]", "value": 4, "unit": "µg/mL"},
      {"measurement": "MIC", "setting": "[9]; [16]", "value": 0.25, "unit": "µg/mL"},
      {"measurement": "MIC", "setting": "[10]", "value": 0.25, "unit": "µg/mL"}
    ]}
  ]
}
